How the values were obtained:
[1] = tested on: metacholine-induced bladder constriction; test: Effects on the bladder constriction in guinea pigs; type: in vivo; conditions: Hartley male guinea pigs, intratracheal application, metacholine 10 μg/kg i.v.; maximum dose suppressing less than 20% at all points within 60 min
Procedure: The present experiment was carried out with Hartley male guinea pigs (supplied by Nippon SLC Co.) as divided into groups each consisting of 3 to 4 animals. The guinea pigs were anesthetized with a urethane ([…], given subcutaneously), and were subjected individually to insertion of a catheter into the carotid vein in order to apply metacholine. […] All the ureters were ligated in order to prevent the urine from flowing into the bladder from the kidney. The internal pressure of the bladder was measured by means of a pressure transducer, whereby the bladder was filled with physiological saline to such an extent as might exert lower pressure than the urination threshold pressure against the inner wall. […] Prior to application of the test substance, and from 5 to 60 min. thereafter, respectively, metacholine was applied intravenously (10 μg/kg) to induce the bladder constriction, and the internal pressure of the bladder was measured in a time-course manner. The bladder-constriction ratio was taken as the proportion of the internal pressure of the bladder measured after application of the test substance to the internal pressure of the bladder before application of the test substance. […]

[2] = tested on: metacholine-induced airway-constriction; test: Effect on the airways constriction in guinea pigs (Konzett-Rossler method); type: in vivo; conditions: Hartley male guinea pigs, intratracheal application, metacholine 10 μg/kg i.v.; minimum dose suppressing not less than 80% within 60 min
Procedure: The present experiment was carried out with Hartley male guinea pigs (supplied by Nippon SLC Co.) as divided into groups each consisting of 3 to 4 animals. The guinea pigs were anesthetized with pentobarbital sodium (60 mg/kg, given intraperitoneally), and were subjected individually to insertion of a cannula into the airways. Each airway cannula was connected with a volume-controlled respirator (Model SN-480-N, manufactured by Shinano Seisakusho Co.) to perform artificial respiration at a ventilation volume of 5 mL and at a ventilation rate of ca. 70/min. For the purpose of application of metacholine, a catheter was inserted into the carotid vein. […] Prior to application of the test substance, and from 5 to 60 min. thereafter, respectively, metacholine was applied intravenously (10 μg/kg) to induce the airway-constriction, and the pressure at which air was passed through the airways, or the air-passage pressure through the airways, was measured with use of the Konzett-Rossler method. The airways-constriction ratio was taken as a proportion, expressed in percentage, of the air-passage pressure through the airways measured after individual application of the test substance to the maximum air-passage pressure through the airways found when the airways were completely clogged and occluded. […]

| SMILES | no-effective dose for the bladder constriction [1] | effective dose for the airway-constriction suppression [2] |
| --- | --- | --- |
| C[N+]1(C)[C@@H]2C[C@@H](OC(=O)C(O)(c3cccs3)c3cccs3)C[C@H]1[C@@H]1O[C@@H]12 [tiotropium] | 1 µg/kg | 10 µg/kg |
| CCOC(=O)COc1cccc(C[N@+]2(C)[C@@H]3CC[C@H]2C[C@@H](OC(=O)C(O)(c2cccs2)c2cccs2)C3)c1.[Br-] [Example 14 (4), (1R,3r,5S,8s)-8-[3-(2-Ethoxy-2-oxoethoxy)benzyl]-3-({hydroxy[di(2-thienyl)]acetyl}oxy)-8-methyl-8-azoniabicyclo[3.2.1]octane bromide] | 30 µg/kg | 3 µg/kg |

From patent publication US20080027094A1, “Tropane Compounds and Pharmaceutical Compositions Comprising the Same as an Active Ingredient” (Ono Pharmaceutical Co., Ltd., priority 2004, published 2008)
